Patent US11464770B2, “Anticancer pharmaceutical composition” (NATIONAL CANCER CENTER, priority 2016, dated 2022)
Read-outs that look alike come from different tables or passages of the source.

How the values were obtained:
[1] = test system: bladder cancer cell lines; assay: Cell based assay, cell viability (CellTiter-Glo), bladder cancer cell lines; conditions: 72 hours treatment, 0 to 2 μM, CellTiter-Glo
Method in brief: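 Viability measured by ATP luminescence following 72 h treatment over a 0–2 μM final concentration range.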

zebrafish = assay: Cardiotoxicity experiment using zebrafish (heart rate, lethality); assay type: in vivo; conditions: 5 uM, n = 10
[2] = Cell based assay, cytotoxicity in RT4 papilloma cells (selectivity); parameters: species or system human; conditions: human; RT4 cells (benign), 72 hours
[3] = test system: MBT-2: Mouse bladder transitional cell carcinoma; assay: Cell based assay, cytotoxicity in MBT-2 cells; conditions: 72 hours
Method: (§1) Commercially available bladder cancer, prostate cancer, lung cancer, breast cancer, blood cancer, pancreatic cancer, colorectal cancer, brain cancer, neuroblastoma, melanoma, liver cancer, cervical carcinoma, ovarian cancer, renal cancer, and papilloma cell lines were each treated with trypsin-EDTA and cultured, followed by being seeded in each well of a 96 well plate. After 24 hours of treatment at constant temperature, the respective cells were treated with the candidate compound so that a final concentration became 0 to 2 μM. The treated cells were additionally cultured for 72 hours, and cell viability was measured by using an ATP detection method (CellTiter-Glo® Luminescent Cell Viability Assay, Promega).

[4] = test system: UM-UC-3: human urinary bladder transitional cell carcinoma; assay: Cell based assay, cytotoxicity in UM-UC-3 cells; conditions: UMUC3, 72 hours
Method: as §1

[5] = test system: human lung cancer cell line (NCI-H1299); assay: Tumor growth inhibition in animal model using NCI-H1299; assay type: in vivo; conditions: intraperitoneally administered three times a week, NCI-H1299 animal model (FIG. 1)
[6] = test system: KU-19-19: Bladder carcinoma; assay: Cell based assay, cytotoxicity in KU19-19 cells; conditions: Homo sapiens, 72 hours
Method: as §1

[7] = test system: human prostate cancer cell line (DU145); assay: Tumor growth inhibition in animal model using DU145; assay type: in vivo; conditions: intraperitoneally administered twice a week, DU145 animal model (FIG. 2)
[8] = 5637 cells, read-out: IC50, bladder cancer cell line 5637
[9] = Homo sapiens, T-24, T24 cells, read-out: IC50, bladder cancer cell line T24
[10] = Homo sapiens, J82 cells, read-out: IC50, bladder cancer cell line J82
[11] = Homo sapiens, KU-19-19 cells, read-out: IC50, bladder cancer cell line KU-19-19

| Compound | IC50 [1, 8] [nM] | IC50 [1, 9] [nM] | IC50 [1, 10] [nM] | other results |
| --- | --- | --- | --- | --- |
| CC(=O)c1c([S+]([O-])Cc2ccc(F)cc2F)[nH]c2c(Br)ccc(Cl)c2c1=O (centres unmarked) [Compound 29, 3-acetyl-8-bromo-5-chloro-2-((2,4-difluorobenzyl)sulfinyl)quinolin-4(1H)-one] | 1330 | 1090 | > 2000 | – |
| CC(=O)c1c([S+]([O-])Cc2ccc(F)c(Cl)c2)[nH]c2c(Br)ccc(Cl)c2c1=O (centres unmarked) [Compound 31, 3-acetyl-8-bromo-5-chloro-2-((3-chloro-4-fluorobenzyl)sulfinyl)quinolin-4(1H)-one] | 1230 | 1120 | 1380 | – |
| CC(=O)c1c([S+]([O-])Cc2ccc([N+](=O)[O-])cc2)[nH]c2c(Br)ccc(Cl)c2c1=O (centres unmarked) [Compound 33, 3-acetyl-8-bromo-5-chloro-2-((4-nitrobenzyl)sulfinyl)quinolin-4(1H)-one] | > 2000 | 1030 | > 2000 | Changes (%) in heart rate (zebrafish; mean): 97.3%; Lethality (zebrafish): 0/10 |
| CC(=O)c1c([S+]([O-])Cc2cc(C)on2)[nH]c2c(Br)ccc(Cl)c2c1=O (centres unmarked) [Compound 51, 3-acetyl-8-bromo-5-chloro-2-(((5-methylisoxazol-3-yl)methyl)sulfinyl)quinolin-4(1H)-one] | 1070 | 890 | > 2000 | – |
| COc1cccc(C[S+]([O-])c2[nH]c3c(Br)ccc(Cl)c3c(=O)c2C(C)=O)c1 (centres unmarked) [Compound 55, 3-acetyl-8-bromo-5-chloro-2-((3-methoxybenzyl)sulfinyl)quinolin-4(1H)-one] | > 2000 | 1540 | > 2000 | – |
| CC(=O)c1c([S+]([O-])Cc2ccc([N+](=O)[O-])cc2)[nH]c2c(Cl)ccc(Cl)c2c1=O (centres unmarked) [Compound 57, 3-acetyl-5,8-dichloro-2-((4-nitrobenzyl)sulfinyl)quinolin-4(1H)-one] | > 2000 | 1790 | > 2000 | – |
| CC(=O)c1c([S+]([O-])Cc2ccc(C(F)(F)F)o2)[nH]c2c(Br)ccc(Cl)c2c1=O (centres unmarked) [Compound 72, 3-acetyl-8-bromo-5-chloro-2-(((5-(trifluoromethyl)furan-2-yl)methyl)sulfinyl)quinolin-4(1H)-one] | 1640 | 1250 | 1630 | – |
| CC(=O)c1c([S+]([O-])Cc2c(F)cccc2Cl)[nH]c2c(Br)ccc(Cl)c2c1=O (centres unmarked) [Compound 74, 3-acetyl-8-bromo-5-chloro-2-((2-chloro-6-fluorobenzyl)sulfinyl)quinolin-4(1H)-one] | 1600 | 1070 | > 2000 | – |
| COc1cc(S(F)(F)(F)(F)F)ccc1C[S+]([O-])c1[nH]c2c(Br)ccc(Cl)c2c(=O)c1C(C)=O (centres unmarked) [Compound 75, 3-acetyl-8-bromo-5-chloro-2-((2-methoxy-4-(pentafluoro--sulfanyl)benzyl)sulfinyl)quinolin-4(1H)-one] | 1570 | 1330 | 1480 | – |
| CC(=O)c1c([S+]([O-])Cc2cc(F)cc(S(F)(F)(F)(F)F)c2)[nH]c2c(Br)ccc(Cl)c2c1=O (centres unmarked) [Compound 76, 3-acetyl-8-bromo-5-chloro-2-((3-fluoro-5-(pentafluoro--sulfanyl)benzyl)sulfinyl)quinolin-4(1H)-one] | > 2000 | 1790 | > 2000 | – |
| CC(=O)c1c([S+]([O-])Cc2c(F)c(F)c(F)c(F)c2F)[nH]c2c(Br)ccc(Cl)c2c1=O (centres unmarked) [Compound 78, 3-acetyl-8-bromo-5-chloro-2-(((perfluorophenyl)methyl)sulfinyl)quinolin-4(1H)-one] | > 2000 | 1800 | > 2000 | – |
| Cc1cc(C[S+]([O-])c2[nH]c3c(Cl)ccc(Cl)c3c(=O)c2C(=O)C(C)C)no1 (centres unmarked) [Compound 86, 5,8-dichloro-3-isobutyryl-2-(((5-methylisoxazol-3-yl)methyl)sulfinyl)quinolin-4(1H)-one] | 1360 | 1020 | 1610 | – |
| COC(=O)c1ccc(C[S+]([O-])c2[nH]c3c(Cl)ccc(Cl)c3c(=O)c2C(C)=O)o1 (centres unmarked) [Compound 89, methyl 5-(((3-acetyl-5,8-dichloro-4-oxo-1,4-dihydroquinolin-2-yl)sulfinyl)methyl)furan-2-carboxylate] | > 2000 | 1750 | > 2000 | – |

The next lines start with results.

| IC50 [1, 8] [nM] | IC50 [1, 9] [nM] | IC50 [1, 10] [nM] | Compound | other results |
| --- | --- | --- | --- | --- |
| > 2000 | > 2000 | > 2000 | CC(=O)c1c(S(=O)(=O)Cc2ccccc2)[nH]c2c(Br)ccc(Cl)c2c1=O [Compound 34, 3-acetyl-2-(benzylsulfonyl)-8-bromo-5-chloroquinolin-4(1H)-one] | – |
| 1350 | 920 | 2070 | CC(=O)c1c([S+]([O-])Cc2cc(Cl)ccc2Cl)[nH]c2c(Br)ccc(Cl)c2c1=O (centres unmarked) [Compound 44, 3-acetyl-8-bromo-5-chloro-2-((2,5-dichlorobenzyl)sulfinyl)quinolin-4(1H)-one] | – |
| 1770 | 1570 | > 2000 | CC(=O)c1c([S+]([O-])Cc2cc(F)cc(F)c2)[nH]c2c(Br)ccc(Cl)c2c1=O (centres unmarked) [Compound 46, 3-acetyl-8-bromo-5-chloro-2-((3,5-difluorobenzyl)sulfinyl)quinolin-4(1H)-one] | – |
| 1470 | – | > 2000 | CC(=O)c1c([S+]([O-])Cc2cccc(F)c2)[nH]c2c(Br)ccc(Cl)c2c1=O (centres unmarked) [Compound 50, 3-acetyl-8-bromo-5-chloro-2-((3-fluorobenzyl)sulfinyl)quinolin-4(1H)-one] | – |
| > 2000 | 980 | 1460 | CC(=O)c1c([S+]([O-])Cc2ccc(SC(F)(F)F)cc2)[nH]c2c(Br)ccc(Cl)c2c1=O (centres unmarked) [Compound 56, 3-acetyl-8-bromo-5-chloro-2-((4-((trifluoromethyl)thio)benzyl)sulfinyl)quinolin-4(1H)-one] | IC50 at 72 h [2]: > 10 µM; IC50 [1, 11]: 900 nM; IC50 [3]: 1.18 µM; IC50 [4]: 1.25 µM; Effect of inhibiting tumor growth [5]: effect of inhibiting tumor growth; IC50 [6]: 0.9 µM; Effect of inhibiting tumor growth [7]: effect of inhibiting tumor growth |
| > 2000 | 1110 | > 2000 | COc1cc(C[S+]([O-])c2[nH]c3c(Br)ccc(Cl)c3c(=O)c2C(C)=O)cc(OC)c1 (centres unmarked) [Compound 59, 3-acetyl-8-bromo-5-chloro-2-((3,5-dimethoxybenzyl)sulfinyl)quinolin-4(1H)-one] | – |
| > 2000 | 1720 | > 2000 | CC(=O)c1c([S+]([O-])Cc2ccc(C(C)(C)C)cc2)[nH]c2c(Br)ccc(Cl)c2c1=O (centres unmarked) [Compound 60, 3-acetyl-8-bromo-2-((4-(tert-butyl)benzyl)sulfinyl)-5-chloroquinolin-4(1H)-one] | – |
| 1520 | 1040 | 1960 | CC(=O)c1c([S+]([O-])Cc2ccc([S+]([O-])C(F)(F)F)cc2)[nH]c2c(Br)ccc(Cl)c2c1=O (centres unmarked) [Compound 64, 3-acetyl-8-bromo-5-chloro-2-((4-((trifluoromethyl)sulfinyl)benzyl)sulfinyl)quinolin-4(1H)-one] | – |
| 1730 | 1690 | 1940 | CC(=O)c1c([S+]([O-])Cc2ccc(C(F)(F)F)cc2)[nH]c2c(Br)ccc(Cl)c2c1=O (centres unmarked) [Compound 70, 3-acetyl-8-bromo-5-chloro-2-((4-(trifluoromethyl)benzyl)sulfinyl)quinolin-4(1H)-one] | – |
| 1510 | 1390 | 1980 | CC(=O)c1c([S+]([O-])Cc2ccc(OC(F)(F)F)cc2)[nH]c2c(Br)ccc(Cl)c2c1=O (centres unmarked) [Compound 71, 3-acetyl-8-bromo-5-chloro-2-((4-(trifluoromethoxy)benzyl)sulfinyl)quinolin-4(1H)-one] | – |
| > 2000 | – | > 2000 | CC(=O)c1c([S+]([O-])Cc2ccc(C#N)cc2)[nH]c2c(Br)ccc(Cl)c2c1=O (centres unmarked) [Compound 73, 4-(((3-acetyl-8-bromo-5-chloro-4-oxo-1,4-dihydroquinolin-2-yl)sulfinyl)methyl)benzonitrile] | IC50 [1, 11]: > 2000 nM |
| 1370 | 1500 | > 2000 | CC(=O)c1c([S+]([O-])Cc2ccc(I)cc2)[nH]c2c(Cl)ccc(Cl)c2c1=O (centres unmarked) [Compound 83, 3-acetyl-5,8-dichloro-2-((4-iodobenzyl)sulfinyl)quinolin-4(1H)-one] | – |
| > 2000 | 1030 | > 2000 | CC(=O)c1c([S+]([O-])Cc2cccnc2)[nH]c2c(Br)ccc(Cl)c2c1=O (centres unmarked) [Compound 84, 3-acetyl-8-bromo-5-chloro-2-((pyridin-3-ylmethyl)sulfinyl)quinolin-4(1H)-one] | – |
| 1230 | 980 | 1470 | Cc1cc(C[S+]([O-])c2[nH]c3c(Br)ccc(Cl)c3c(=O)c2C(=O)C(C)C)no1 (centres unmarked) [Compound 95, 8-bromo-5-chloro-3-isobutyryl-2-(((5-methylisoxazol-3-yl)methyl)sulfinyl)quinolin-4(1H)-one] | – |
